The values that follow come from the supplement of paper PMC11562712.

The nature of this series: first-order primary biodegradation rate constant k (sorption-corrected, fDis-corrected) (d-1); higher = faster biodegradation. The method, boiled down:
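Each of 129 compounds was spiked at 1 μg L^–1 into river water containing sieved sediment (50 g wet solid L^–1) from German, Swiss, Spanish and Greek river segments, then shaken in darkness at 20.5 ± 3.5 °C, the river water temperature, for 10 days in three replicates. Filtered samples of the water phase were measured by ultra-high-performance liquid chromatography coupled to Orbitrap tandem mass spectrometry. First-order k values came from log peak-area regression, corrected for sorption-control dissipation under azide sterilisation and divided by dissolved fraction, and invalid fits were left out.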

Where [1] appears, read: river segment: Germany (DE) H_Contam, incubation temperature 24 °C.
The mark [2] stands for this setting: river segment: Germany (DE) T_Contam, incubation temperature 24 °C.
Where [3] appears, read: river segment: Greece (EL) A_Contam, incubation temperature 19 °C.
The mark [4] stands for this setting: river segment: Greece (EL) G_Pris, incubation temperature 19 °C.
Where [5] appears, read: river segment: Spain (ES) B_Contam, incubation temperature 24 °C.
Where [6] appears, read: river segment: Spain (ES) C_Contam, incubation temperature 24 °C.
The mark [7] stands for this setting: river segment: Spain (ES) F_Pris_Salt, incubation temperature 24 °C.
Setting [8] is: river segment: Spain (ES) L_Contam, incubation temperature 24 °C.
The mark [9] stands for this setting: river segment: Switzerland (CH) R_Contam, incubation temperature 17 °C.
Setting [10] is: river segment: Switzerland (CH) U_Contam, incubation temperature 17 °C.
The mark [11] stands for this setting: river segment: Switzerland (CH) U_Pris, incubation temperature 17 °C.
Where [12] appears, read: river segment: Germany (DE) T_Pris, incubation temperature 24 °C.
The mark [13] stands for this setting: river segment: Greece (EL) L_Contam, incubation temperature 19 °C.
Setting [14] is: river segment: Switzerland (CH) C_Contam, incubation temperature 17 °C.
Where [15] appears, read: river segment: Greece (EL) G_Contam, incubation temperature 19 °C.

In the case of `NCC1(CC(=O)O)CCCCC1` [Gabapentin], the “first-order primary biodegradation rate constant k” value by setting is: under setting [1], 0.0147; under setting [2], 0.183; under setting [3], 0.0518; under setting [4], 0.0145; under setting [5], 0.811; under setting [6], 0.119. The “first-order primary biodegradation rate constant k” value turned out to be 0.119 under setting [7]; 0.235 under setting [8]; 0.109 under setting [9]; 0.0703 under setting [10]; 0.15 under setting [11].
Regarding `Cc1ccc(C)c(OCCCC(C)(C)C(=O)O)c1` [Gemfibrozil], the “first-order primary biodegradation rate constant k” value is, setting by setting: under setting [1], 0.143; under setting [2], 0.278; under setting [12], 0.133; under setting [3], 0.37; under setting [4], 0.227; under setting [13], 0.152. The “first-order primary biodegradation rate constant k” value under setting [5] was determined as 0.371; the “first-order primary biodegradation rate constant k” value under setting [6] came to 0.26; the “first-order primary biodegradation rate constant k” value under setting [8] was 0.327; the “first-order primary biodegradation rate constant k” value under setting [14] came out at 0.237; the “first-order primary biodegradation rate constant k” value under setting [11] worked out at 1.01.
As to `O=[N+]([O-])/N=C1\NCCN1Cc1ccc(Cl)nc1` [Imidacloprid], the “first-order primary biodegradation rate constant k” value under setting [1] worked out at 0.029, the “first-order primary biodegradation rate constant k” value under setting [2] amounted to 0.0495, the “first-order primary biodegradation rate constant k” value under setting [6] was 0.0128 and the “first-order primary biodegradation rate constant k” value under setting [11] worked out at 0.00932.
Take `Cc1ccc(C(C)NC(=O)[C@@H](NC(=O)OC(C)C)C(C)C)cc1` (stereo partly drawn) [Iprovalicarb]: the “first-order primary biodegradation rate constant k” value is, setting by setting: under setting [1], 0.251; under setting [2], 0.275; under setting [12], 0.0361; under setting [3], 0.258; under setting [15], 0.16; under setting [4], 0.138. The “first-order primary biodegradation rate constant k” value was 0.096 under setting [13]; 0.211 under setting [5]; 0.115 under setting [6]; 0.203 under setting [8]; 0.0585 under setting [14]; 0.123 under setting [9]. For the same compound, the “first-order primary biodegradation rate constant k” value is, setting by setting: under setting [10], 0.167; under setting [11], 0.146.
As for `CCCCC1=NC2(CCCC2)C(=O)N1Cc1ccc(-c2ccccc2-c2nnn[nH]2)cc1` [Irbesartan], the “first-order primary biodegradation rate constant k” value reads like this: under setting [1], 0.161; under setting [4], 0.0725; under setting [8], 0.426; under setting [10], 0.0556.
Turning to `CC(C)c1ccc(NC(=O)N(C)C)cc1` [Isoproturon], the “first-order primary biodegradation rate constant k” value runs as follows: under setting [1], 0.0107; under setting [2], 0.0814; under setting [3], 0.072; under setting [4], 0.111; under setting [13], 0.0309; under setting [6], 0.0102. Moreover, the “first-order primary biodegradation rate constant k” value runs as follows: under setting [8], 0.0402; under setting [10], 0.0187; under setting [11], 0.0209.
On to `CC(C(=O)O)c1cccc(C(=O)c2ccccc2)c1` (stereo not drawn) [Ketoprofen], for which the “first-order primary biodegradation rate constant k” value runs as follows: under setting [1], 0.108; under setting [2], 0.441; under setting [12], 0.226; under setting [3], 0.537; under setting [15], 0.0301; under setting [4], 0.36. For the same compound, the “first-order primary biodegradation rate constant k” value worked out at 0.285 under setting [13]; 0.235 under setting [5]; 0.269 under setting [6]; 0.0247 under setting [7]; 0.368 under setting [8]; 1.07 under setting [14]. The “first-order primary biodegradation rate constant k” value came out at 0.829 under setting [9], 1.21 under setting [10] and 2.62 under setting [11].
For `Nc1nnc(-c2cccc(Cl)c2Cl)c(N)n1` [Lamotrigine], the “first-order primary biodegradation rate constant k” value is, setting by setting: under setting [2], 0.0823; under setting [15], 0.337; under setting [4], 0.0465; under setting [13], 0.0519.
Take `c1ccc([C@H]2CN3CCSC3=N2)cc1` [Levamisole]: the “first-order primary biodegradation rate constant k” value by setting is: under setting [2], 0.512; under setting [12], 0.0857; under setting [3], 0.193; under setting [4], 0.133; under setting [13], 0.21; under setting [5], 0.0276. Also, the “first-order primary biodegradation rate constant k” value runs as follows: under setting [6], 0.0263; under setting [8], 0.0585; under setting [14], 0.0196; under setting [9], 0.0447; under setting [10], 0.0845; under setting [11], 0.0682.
In the case of `CC[C@@H](C(N)=O)N1CCCC1=O` [Levetiracetam], the “first-order primary biodegradation rate constant k” value is, setting by setting: under setting [1], 0.229; under setting [2], 0.49; under setting [12], 0.0839; under setting [3], 0.382; under setting [4], 0.188; under setting [5], 0.958. For the same compound, the “first-order primary biodegradation rate constant k” value runs as follows: under setting [6], 0.236; under setting [8], 0.262; under setting [9], 0.35.
For the compound `CCN(CC)CC(=O)Nc1c(C)cccc1C` [Lidocaine], the “first-order primary biodegradation rate constant k” value runs as follows: under setting [1], 0.0105; under setting [2], 0.00344; under setting [3], 0.0177; under setting [4], 0.00116; under setting [13], 0.0298; under setting [5], 0.0307. For the same compound, the “first-order primary biodegradation rate constant k” value came out at 0.287 under setting [6]; 0.118 under setting [8]; 0.00975 under setting [14]; 0.00379 under setting [9]; 0.0121 under setting [10]; 0.0138 under setting [11].
On to `CC(=O)NC[C@H]1CN(c2ccc(N3CCOCC3)c(F)c2)C(=O)O1` [Linezolid], for which the “first-order primary biodegradation rate constant k” value reads like this: under setting [1], 0.0119; under setting [2], 0.0934; under setting [12], 0.0124; under setting [3], 0.285; under setting [15], 0.00542; under setting [4], 0.308. For the same compound, the “first-order primary biodegradation rate constant k” value runs as follows: under setting [13], 0.262; under setting [5], 0.0257; under setting [6], 0.0212; under setting [8], 0.0693; under setting [14], 0.0127; under setting [9], 0.0142. Moreover, the “first-order primary biodegradation rate constant k” value amounted to 0.0268 under setting [10] and 0.103 under setting [11].
For `CCCCc1nc(Cl)c(CO)n1Cc1ccc(-c2ccccc2-c2nnn[nH]2)cc1` [Losartan], the “first-order primary biodegradation rate constant k” value stood at 0.417 under setting [1]; 0.319 under setting [2]; 0.123 under setting [12]; 0.323 under setting [3]; 0.781 under setting [4]; 0.343 under setting [13]. Moreover, the “first-order primary biodegradation rate constant k” value by setting is: under setting [5], 0.157; under setting [6], 0.105; under setting [7], 0.0258; under setting [8], 0.299; under setting [14], 0.06; under setting [9], 0.149. For the same compound, the “first-order primary biodegradation rate constant k” value runs as follows: under setting [10], 0.294; under setting [11], 0.358.
